In publication PMC9516332 (Frontiers in Oncology, 2022):

Columns and labels:
Assay in all cases: Kinase panel profiling at 1 µmol/L (MSA or IMAP), percentage inhibition
Format in all cases: biochemical
[1] = biological target: panel of 255 wild-type kinases (Homo sapiens, UniProt P35968); conditions: kinase KDR; 1 µmol/L single concentration; read-out: %-inhibition at 1 µmol/L, KDR
[2] = biological target: panel of 255 wild-type kinases (Homo sapiens, UniProt P45984); conditions: kinase JNK2; 1 µmol/L single concentration; read-out: %-inhibition at 1 µmol/L, JNK2
[3] = biological target: panel of 255 wild-type kinases (Homo sapiens, UniProt P49840); conditions: kinase GSK3α; 1 µmol/L single concentration; read-out: %-inhibition at 1 µmol/L, GSK3α
[4] = biological target: panel of 255 wild-type kinases (Homo sapiens, UniProt P51957); conditions: NEK4; 1 µmol/L single concentration; read-out: %-inhibition, NEK4
[5] = biological target: panel of 255 wild-type kinases (Homo sapiens, UniProt P53350); conditions: kinase PLK1; 1 µmol/L single concentration; read-out: %-inhibition at 1 µmol/L, PLK1
[6] = biological target: panel of 255 wild-type kinases (Homo sapiens, UniProt P68400); conditions: kinase CK2α1/β; 1 µmol/L single concentration; read-out: %-inhibition at 1 µmol/L, CK2α1/β
[7] = biological target: panel of 255 wild-type kinases (Homo sapiens, UniProt Q04912); conditions: kinase RON; 1 µmol/L single concentration; read-out: %-inhibition at 1 µmol/L, RON
[8] = biological target: T1, panel of 255 wild-type kinases (Homo sapiens, UniProt Q13188); conditions: MST2; 1 µmol/L single concentration; read-out: %-inhibition, MST2
T1 sequence (Q13188 1-491): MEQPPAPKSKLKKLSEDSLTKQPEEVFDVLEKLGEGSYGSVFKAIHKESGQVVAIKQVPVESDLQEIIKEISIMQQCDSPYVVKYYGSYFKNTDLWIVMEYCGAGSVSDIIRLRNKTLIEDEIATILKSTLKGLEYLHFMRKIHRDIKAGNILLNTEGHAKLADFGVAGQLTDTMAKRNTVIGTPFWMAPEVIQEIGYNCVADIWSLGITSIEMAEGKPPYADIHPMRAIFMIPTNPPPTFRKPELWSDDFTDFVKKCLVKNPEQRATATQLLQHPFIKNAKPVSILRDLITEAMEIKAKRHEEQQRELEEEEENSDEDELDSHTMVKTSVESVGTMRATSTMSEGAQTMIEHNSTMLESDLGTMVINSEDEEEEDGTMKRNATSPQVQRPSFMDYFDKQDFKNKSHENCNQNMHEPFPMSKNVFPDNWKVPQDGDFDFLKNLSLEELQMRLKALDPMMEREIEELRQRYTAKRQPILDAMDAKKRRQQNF

[9] = biological target: panel of 255 wild-type kinases (Homo sapiens, UniProt Q15208); conditions: NDR1; 1 µmol/L single concentration; read-out: %-inhibition, NDR1
[10] = biological target: panel of 255 wild-type kinases (Homo sapiens, UniProt Q15759); conditions: p38β; 1 µmol/L single concentration; read-out: %-inhibition, p38β
[11] = biological target: T2, panel of 255 wild-type kinases (Homo sapiens, UniProt Q16566); conditions: CaMK4 kinase assay; 1 µmol/L single concentration; read-out: %-inhibition CaMK4
T2 sequence (Q16566 1-473): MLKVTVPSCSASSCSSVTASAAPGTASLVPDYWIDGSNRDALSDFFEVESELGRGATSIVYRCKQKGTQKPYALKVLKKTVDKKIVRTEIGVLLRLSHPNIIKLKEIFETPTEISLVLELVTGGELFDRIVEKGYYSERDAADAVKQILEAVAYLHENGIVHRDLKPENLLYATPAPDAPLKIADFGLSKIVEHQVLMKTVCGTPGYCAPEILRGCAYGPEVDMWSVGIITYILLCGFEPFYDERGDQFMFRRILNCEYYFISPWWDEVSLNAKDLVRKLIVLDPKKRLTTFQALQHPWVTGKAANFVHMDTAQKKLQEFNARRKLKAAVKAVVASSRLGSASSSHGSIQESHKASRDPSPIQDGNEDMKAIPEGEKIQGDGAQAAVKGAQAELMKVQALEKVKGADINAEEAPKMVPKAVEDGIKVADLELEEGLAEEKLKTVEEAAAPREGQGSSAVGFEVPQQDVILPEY

[12] = biological target: panel of 255 wild-type kinases (Homo sapiens, UniProt Q8IY84); conditions: NIM1K; 1 µmol/L single concentration; read-out: %-inhibition, NIM1K
[13] = biological target: T3, panel of 255 wild-type kinases (Homo sapiens, UniProt Q96BR1); conditions: kinase SGK3; 1 µmol/L single concentration; read-out: %-inhibition at 1 µmol/L, SGK3
T3 sequence (Q96BR1 1-496): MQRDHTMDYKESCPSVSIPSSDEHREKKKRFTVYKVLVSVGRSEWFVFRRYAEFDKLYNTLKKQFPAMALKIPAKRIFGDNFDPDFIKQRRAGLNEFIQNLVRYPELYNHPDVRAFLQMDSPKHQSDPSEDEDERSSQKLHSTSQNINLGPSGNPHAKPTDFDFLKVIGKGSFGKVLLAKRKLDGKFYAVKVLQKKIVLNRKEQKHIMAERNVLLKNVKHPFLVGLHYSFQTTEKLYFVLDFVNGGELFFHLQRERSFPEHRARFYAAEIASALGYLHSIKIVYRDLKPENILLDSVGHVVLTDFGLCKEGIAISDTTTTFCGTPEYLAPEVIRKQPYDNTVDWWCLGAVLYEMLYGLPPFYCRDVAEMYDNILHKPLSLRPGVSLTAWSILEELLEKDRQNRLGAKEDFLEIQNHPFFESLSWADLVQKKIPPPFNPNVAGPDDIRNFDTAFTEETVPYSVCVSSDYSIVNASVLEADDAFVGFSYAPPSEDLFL

[14] = biological target: panel of 255 wild-type kinases (Homo sapiens, UniProt Q9Y6M4); conditions: kinase CK1γ3; 1 µmol/L single concentration; read-out: %-inhibition at 1 µmol/L, CK1γ3
[15] = test system: panel of 255 wild-type kinases; conditions: 1 µmol/L single concentration; for %-inhibition at 1 µmol/L, FYN [isoform b]: kinase FYN [isoform b]; for %-inhibition at 1 µmol/L, LYNb: kinase LYNb; for %-inhibition at 1 µmol/L, PKCβ2: kinase PKCβ2; for %-inhibition at 1 µmol/L, SRM: kinase SRM

SMILES | inhibition at 1 µM [1] [%] | inhibition at 1 µM [2] [%] | inhibition at 1 µM [3] [%] | inhibition at 1 µM [4] [%] | inhibition at 1 µM [5] [%] | inhibition at 1 µM [6] [%] | inhibition at 1 µM [7] [%] | inhibition at 1 µM [8] [%] | inhibition at 1 µM [9] [%] | inhibition at 1 µM [10] [%] | inhibition at 1 µM [11] [%] | inhibition at 1 µM [12] [%] | inhibition at 1 µM [13] [%] | inhibition at 1 µM [14] [%] | %-inhibition at 1 µmol/L, FYN [isoform b] [15] [%] | %-inhibition at 1 µmol/L, LYNb [15] [%] | %-inhibition at 1 µmol/L, PKCβ2 [15] [%] | %-inhibition at 1 µmol/L, SRM [15] [%]
COC(=O)N[C@@H](C)CNc1nccc(-c2cn(C(C)C)nc2-c2cc(Cl)cc(NS(C)(=O)=O)c2F)n1 [encorafenib] | 22 | 61 | 55 | 4.44 | -2.56 | -1 | -1.42 | 3 | 1.12 | 56 | 4.35 | -12 | 5 | 10 | 4.62 | 4 | 2.15 | 85
CCc1nc(C(N)=O)c(Nc2ccc(N3CCC(N4CCN(C)CC4)CC3)c(OC)c2)nc1NC1CCOCC1 [gilteritinib] | 104 | 44 | 7.48 | 50 | 7.52 | 15 | 98 | 14 | 68 | 6 | 18 | 29 | -18 | 11 | 86 | 84 | 31 | 23
COc1cc2ncnc(Nc3ccc(F)c(Cl)c3)c2cc1NC(=O)/C=C/CN1CCCCC1 [dacomitinib] | 42 | 1.27 | 1.45 | -2.15 | 3.78 | -4 | 5 | 2 | -0.0726 | 8.44 | 2.44 | 1.1 | -20 | -23 | 37 | 74 | 5.44 | 1.79
Cn1cc(-c2cc3c(N4CCN(c5ncc([C@@](C)(N)c6ccc(F)cc6)cn5)CC4)ncnn3c2)cn1 [avapritinib] | 71 | 1.1 | 3 | 12 | -1.53 | -3.77 | 48 | 0.434 | -1.28 | -2.41 | -0.588 | 0.427 | -2 | 10 | 3 | 83 | -0.278 | 0.441
CCn1c(=O)c(-c2cc(NC(=O)Nc3ccccc3)c(F)cc2Br)cc2cnc(NC)cc21 [ripretinib] | 111 | 35 | -0.0405 | 19 | 4 | 1 | 1.39 | 0.11 | 0.881 | 88 | 1.71 | 0.056 | -9 | -8 | 33 | 85 | -0.488 | 32
